Assay results: PMC12424613, “Analysis of the resistance level and target site resistance mechanisms of Echinochloa crus-galli to penoxsulam from Hubei Province, China” (PeerJ, 2025)

Biological target: T1, acetolactate synthase (ALS)
T1 construct: native ALS from leaf extract of susceptible population 18-NJ (ammonium sulfate precipitated, desalted; ALS1/ALS2/ALS3 copies not separated)
Assay: in vitro ALS activity assay (acetoin formation, […] nm) in desalted leaf enzyme extract
Type: biochemical, Echinochloa crus-galli

**Q.** Which IC50 does the source give for `COc1cnc(OC)n2nc(NS(=O)(=O)c3c(OCC(F)F)cccc3C(F)(F)F)nc12` [penoxsulam] here?
**A.** 1230 nM
